Values after ≈ are worked out from the molar mass of the structure shown.
Tests used:
[1] = test system: Candida albicans ATCC 10231; experiment: Broth microdilution MIC/MFC; format: cell-based; conditions: for MFC: ATCC10231, read-out: MFC; for MIC: ATCC10231, read-out: MIC
Method in brief: (§1)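 Two-fold dilutions in RPMI 1640 with MOPS (fungi) or Mueller-Hinton broth (bacteria), final 1000–0.488 µg/mL, inoculum 0.5 McFarland in 0.85% NaCl. MIC read spectrophotometrically; MBC/MFC as lowest concentration with no visible growth after well contents were spotted onto agar.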

[2] = test system: Candida albicans ATCC 2091; experiment: Broth microdilution MIC/MFC; format: cell-based; conditions: for MFC: ATCC2091, read-out: MFC; for MIC: ATCC2091, read-out: MIC
Method in brief: as §1

[3] = test system: Candida glabrata ATCC 90030; experiment: Broth microdilution MIC/MFC; format: cell-based; conditions: Nakaseomyces glabratus; for MFC: ATCC90030, read-out: MFC; for MIC: ATCC90030, read-out: MIC
Method in brief: as §1

[4] = test system: Candida krusei ATCC 14243; experiment: Broth microdilution MIC/MFC; format: cell-based; conditions: Pichia kudriavzevii; for MFC: ATCC14243, read-out: MFC; for MIC: ATCC14243, read-out: MIC
Method in brief: as §1

[5] = test system: Candida parapsilosis ATCC 22019; experiment: Broth microdilution MIC/MFC; format: cell-based; conditions: Lodderomyces parapsilosis; for MFC: ATCC22019, read-out: MFC; for MIC: ATCC22019, read-out: MIC
Method in brief: as §1

[6] = test system: Staphylococcus aureus ATCC 43300; experiment: Broth microdilution MIC/MBC; conditions: ATCC43300 / MRSA
[7] = test system: Staphylococcus epidermidis ATCC 12228; experiment: Broth microdilution MIC/MBC; conditions: ATCC12228
[8] = test system: Micrococcus luteus ATCC 10240; experiment: Broth microdilution MIC/MBC; conditions: Micrococcus luteus, ATCC10240
[9] = test system: Bacillus subtilis ATCC 6633; experiment: Broth microdilution MIC/MBC; conditions: ATCC6633
[10] = test system: Bacillus cereus ATCC 10876; experiment: Broth microdilution MIC/MBC; conditions: Bacillus cereus, ATCC10876
[11] = test system: Bordetella bronchiseptica ATCC 4617; experiment: Broth microdilution MIC/MBC; conditions: ATCC4617
[12] = test system: Klebsiella pneumoniae ATCC 13883; experiment: Broth microdilution MIC/MBC; conditions: ATCC13883
[13] = test system: Escherichia coli ATCC 25922; experiment: Broth microdilution MIC/MBC; conditions: ATCC25922
[14] = test system: Salmonella typhimurium ATCC 14028; experiment: Broth microdilution MIC/MBC; conditions: for MBC / MIC: Salmonella enterica; for MBC/MIC: Salmonella typhimurium ATCC 14028

| SMILES | MFC [1] [µg/mL] | MIC [1] [µg/mL] | MFC [2] [µg/mL] | MIC [2] [µg/mL] | MFC [3] [µg/mL] | MIC [3] [µg/mL] | MFC [4] [µg/mL] | MIC [4] [µg/mL] | MFC [5] [µg/mL] | MIC [5] [µg/mL] | MBC [6] [µg/mL] | MIC [6] [µg/mL] | MBC [7] [µg/mL] | MIC [7] [µg/mL] | MBC [8] [µg/mL] | MIC [8] [µg/mL] | MBC [9] [µg/mL] | MIC [9] [µg/mL] | MBC [10] [µg/mL] | MIC [10] [µg/mL] | also measured |
| --- | --- | --- | --- | --- | --- | --- | --- | --- | --- | --- | --- | --- | --- | --- | --- | --- | --- | --- | --- | --- | --- |
| O=C(N/N=C/c1cc(I)cc(I)c1O)c1ccccc1I [Compound 14, N-[(3,5-diiodo-2-hydroxyphenyl)methylidene]-2-iodobenzohydrazide] | 1000 (≈ 1620 µM) | 500 (≈ 809 µM) | > 1000 | 500 (≈ 809 µM) | 1000 (≈ 1620 µM) | 250 (≈ 405 µM) | > 1000 | 500 (≈ 809 µM) | > 1000 | 1000 (≈ 1620 µM) | 1000 (≈ 1620 µM) | 250 (≈ 405 µM) | 250 (≈ 405 µM) | 125 (≈ 202 µM) | 125 (≈ 202 µM) | 62.5 (≈ 101 µM) | 500 (≈ 809 µM) | 500 (≈ 809 µM) | 250 (≈ 405 µM) | 125 (≈ 202 µM) | – |
| O=C(N/N=C/c1cc(Cl)cc(I)c1O)c1cccc(I)c1 [Compound 20, N-[(5-chloro-2-hydroxy-3-iodophenyl)methylidene]-3-iodobenzohydrazide] | > 1000 | 250 (≈ 475 µM) | > 1000 | 500 (≈ 950 µM) | > 1000 | 125 (≈ 237 µM) | > 1000 | 500 (≈ 950 µM) | > 1000 | 125 (≈ 237 µM) | 7.81 (≈ 14.8 µM) | 3.91 (≈ 7.43 µM) | 7.81 (≈ 14.8 µM) | 1.95 (≈ 3.7 µM) | 7.81 (≈ 14.8 µM) | 1.95 (≈ 3.7 µM) | 31.2 (≈ 59.4 µM) | 7.81 (≈ 14.8 µM) | 31.2 (≈ 59.4 µM) | 7.81 (≈ 14.8 µM) | MBC [11]: > 1000 µg/mL; MBC/MIC [11]: > 2; MIC [11]: 500 µg/mL (≈ 950 µM); MBC [12]: > 1000 µg/mL; MBC/MIC [12]: > 2; MIC [12]: 500 µg/mL (≈ 950 µM); MBC [13]: > 1000 µg/mL; MBC/MIC [13]: > 1; MIC [13]: 1000 µg/mL (≈ 1900 µM); MBC [14]: > 1000 µg/mL; MIC [14]: 1000 µg/mL (≈ 1900 µM); MBC/MIC [14]: > 1 |
| O=C(N/N=C/c1cc(Br)cc(Br)c1O)c1cccc(I)c1 [Compound 21, N-[(3,5-dibromo-2-hydroxyphenyl)methylidene]-3-iodobenzohydrazide] | > 1000 | 250 (≈ 477 µM) | > 1000 | 500 (≈ 954 µM) | > 1000 | 125 (≈ 239 µM) | > 1000 | 500 (≈ 954 µM) | > 1000 | 250 (≈ 477 µM) | 62.5 (≈ 119 µM) | 15.6 (≈ 29.8 µM) | 31.2 (≈ 59.6 µM) | 7.81 (≈ 14.9 µM) | 15.6 (≈ 29.8 µM) | 3.91 (≈ 7.46 µM) | 31.2 (≈ 59.6 µM) | 7.81 (≈ 14.9 µM) | 62.5 (≈ 119 µM) | 15.6 (≈ 29.8 µM) | MIC [11]: > 1000 µg/mL; MIC [12]: > 1000 µg/mL; MIC [13]: > 1000 µg/mL; MIC [14]: > 1000 µg/mL |
| O=C(N/N=C/c1cc(Cl)cc(I)c1O)c1ccc(I)cc1 [Compound 27, N-[(5-chloro-2-hydroxy-3-iodophenyl)methylidene]-4-iodobenzohydrazide] | 31.2 (≈ 59.4 µM) | 15.6 (≈ 29.7 µM) | 62.5 (≈ 119 µM) | 62.5 (≈ 119 µM) | 62.5 (≈ 119 µM) | 31.2 (≈ 59.4 µM) | 62.5 (≈ 119 µM) | 62.5 (≈ 119 µM) | 62.5 (≈ 119 µM) | 31.2 (≈ 59.4 µM) | 250 (≈ 475 µM) | 62.5 (≈ 119 µM) | 31.2 (≈ 59.4 µM) | 31.2 (≈ 59.4 µM) | 250 (≈ 475 µM) | 125 (≈ 237 µM) | 500 (≈ 950 µM) | 125 (≈ 237 µM) | 250 (≈ 475 µM) | 62.5 (≈ 119 µM) | MBC [11]: 1000 µg/mL (≈ 1900 µM); MBC/MIC [11]: 2; MIC [11]: 500 µg/mL (≈ 950 µM); MBC [12]: > 1000 µg/mL; MBC/MIC [12]: > 2; MIC [12]: 500 µg/mL (≈ 950 µM); MBC [13]: 500 µg/mL (≈ 950 µM); MBC/MIC [13]: 1; MIC [13]: 500 µg/mL (≈ 950 µM); MBC [14]: 1000 µg/mL (≈ 1900 µM); MIC [14]: 500 µg/mL (≈ 950 µM); MBC/MIC [14]: 2 |

Reference: publication PMC11356900, “Synthesis, Structural Properties and Biological Activities of Novel Hydrazones of 2-, 3-, 4-Iodobenzoic Acid” (Molecules, 2024)
